Assay results taken from patent US9493782B2, “Inducible promoter sequences for regulated expression and methods of use” (PIONEER HI-BRED INTERNATIONAL INC, priority 2012, dated 2016).

How the values were obtained:
[1] = test system: truncated 1.0 kb ZmCAS1 promoter driving GUS reporter; assay: GUS staining (X-Gluc) of maize callus events transformed with PHP16974; format: cell-based; conditions: seven PHP16974 callus events, 100 mg/liter CBSU, room temperature; FIG. 4B
[2] = test system: 1.7 kb ZmCAS1 promoter driving GUS reporter; assay: GUS staining (X-Gluc) of maize callus events transformed with PHP16975; format: cell-based; conditions: room temperature, 18 hours, FIG. 4A
Source text: Agrobacterium-mediated transformation of immature embryos was used to generate integrated copies of PHP16974 (SEQ ID NO:11; ZmCAS1HindIII Pro:GUS/35SPAT) comprising the 1.0 kb ZmCAS1 promoter (SEQ ID NO:9), PHP16975 (SEQ ID NO:12, ZmCAS1BamPro:GUS/35SPAT) comprising the 1.7 kb ZmCAS1 promoter (SEQ ID NO:10) and PHP16972 (SEQ ID NO:13, ZmCAS1HindIII Pro:MS45/35SPAT) comprising the 1.0 kb ZmCAS1 promoter or PHP16973 (SEQ ID NO:14, ZmCAS1BamPro:MS45/35SPAT:) comprising the 1.7 kb ZmCAS1 promoter.
To determine whether the 1.7 kb or the 1.0 kb ZmCAS1 promoter from maize could direct induced expression of the GUS reporter, three bialophos-resistant callus events were placed onto maintenance media and maintenance media containing increasing amounts of the safener CBSU-2 for at room temperature for 18 hours, removed and stained with X-Gluc to detect GUS activity.

[3] = test system: ZmCAS1 transcript; assay: Northern blot of maize anther RNA from CBSU-treated plants, ZmCAS1 probe; format: in vivo; conditions: FIG. 2
Protocol: (§1) Wild type maize plants were grown to the meiosis stage of microspore development. Plants were watered with 30 mg 2-CBSU and allowed to develop to the quartet and early vacuolate stage of microspore development. PolyA+ anther RNA was isolated from wild type control and CBSU treated plants and stored. A cDNA library was constructed from mRNAs isolated from CBSU-treated plants, arrayed onto nylon filters and stored. A cDNA subtraction library was generated using the Clontech PCR-Select cDNA Subtraction Kit (#K1804-1) following the manufacturer's instructions to enrich for CBSU-specific transcripts. Using this approach anther PolyA+ mRNA from wild-type plants was used to enrich for transcripts found in the anther PolyA+ mRNA from CBSU treated plants. […]
(§2) To determine whether the ZmCAS1 cDNA was 1) induced in maize anthers by CBSU-treatment and 2) reduced or absent in tapetum and microspore-ablated maize anthers from CBSU-treated 5126:DAM plants, a 477 bp ZmCAS1c-1 DNA fragment (SEQ ID NO:1), as well as DNA fragments from ZmMS45, Zm5126, ZmActin, and ZmUbiquitin (Cigan et al. 2001. […] MS45 and 5126 transcripts were easily detected in anther RNAs from male-fertile plants but absent in anther RNAs from male-sterile plants (FIG. 2) further supporting the observation that these RNAs are localized to the maize tapetum (Cigan et al. 2001. Sex. Plant Reprod. 14, 135-142).

[4] = test system: 1.7 kb ZmCAS1 promoter driving GUS reporter; assay: GUS expression in leaf punches of maize plants transformed with PHP16975; format: in vivo; conditions: 3 PHP16975 plants, about 5 leaf stage, 2 days after watering with 30 mg 2-CBSU; FIG. 5
Protocol: Plants were also regenerated from callus events containing PHP16975 and grown in the greenhouse to approximately the 5 leaf stage. At this stage of development, leaf punches from plants regenerated from the 3 bialophos-resistant events shown in FIG. 5 were collected pre- (C) and post-watering (S) with 30 mg of 2-CBSU to examine GUS expression in leaf in response to application of the safener.

[5] = test system: truncated 1.0 kb ZmCAS1 promoter driving GUS reporter; assay: GUS staining (X-Gluc) of rice callus events transformed with PHP16974; format: cell-based, Oryza sativa cv. Kitaake; conditions: four PHP16974 events, 100 mg/liter CBSU, 24 hours; FIG. 9
Source text: To determine whether the ZmCAS1 promoter could conditionally regulate expression in response to safener treatment or heat treatment in plant species other than maize, Agrobacterium-mediated transformation was used to generate integrated copies of PHP16974 (ZmCAS1HindIII Pro:GUS) comprising the truncated 1.0 kb ZmCAS1 promoter for studies in rice. Scutellum from 10-14 day old germinating seeds (Oryza sativa cv. Kitaake) was used for rice transformation experiment (Toki. 1997, PI Mol. Biol Reporter 15:16-21). Bialophos-resistant callus events containing PHP16974 were selected and screened for their ability to respond to safener application. Four independent bialophos-resistant events were grown on maintenance media or maintenance media containing 100 mg/liter CBSU for 24 hours, removed and stained with X-Gluc. […] PHP16974 bialophos-resistant events were regenerated into plants. Leaf tissue was collected from these plants and used for DNA hybridization analyses to identify single-copy PHP16974 insertions. These plants were allowed to set selfed seed and were used for subsequent studies to monitor GUS expression under the transcriptional control of the ZmCAS1 promoter. Sixteen seed were selected from 2 single-copy PHP16974 events were sterilized, grown on hormone-free media at 28° C. or 37° C. for 48 hours and allowed to germinate. […]

[6] = test system: 1.7 kb ZmCAS1 promoter driving MS45; assay: Western analysis of MS45 protein in ms45/ms45 maize plants transformed with PHP16973; format: in vivo; conditions: PHP16973 plants watered with 30 mg CBSU at meiosis stage, collected 2 days later
[7] = test system: IN2-2 transcript; assay: Northern blot of maize anther RNA from CBSU-treated plants, IN2-2 probe; format: in vivo; conditions: CBSU-treated male-fertile and male-sterile plants; not detectable in untreated controls; FIG. 2
Protocol: as §1, §2

[8] = test system: 1.0 kb ZmCAS1 promoter driving MS45; assay: Northern analysis of MS45 mRNA in ms45/ms45 maize callus transformed with PHP16972; format: cell-based; conditions: five PHP16972 ms45/ms45 callus events, 100 mg/liter CBSU, room temperature, 18 hours; FIG. 6
Source text: T-DNA vectors PHP16972 (SEQ ID NO:13, ZmCAS1HindIII Pro: MS45/35S:PAT) and PHP16973 (SEQ ID NO: 14, ZmCAS1 BamPro:MS45/35S:PAT) were used to transform maize callus which was generated to contain a segregating population of MS45/ms45 heterozygous and ms45/ms45 homozygous mutant plants. In order to detect MS45 RNA or protein expression under the control of the 1.0 or 1.7 kb ZmCAS promoter in maize anthers, plants containing a naturally occurring mutation in the maize MS45 gene which results in loss of MS45 RNA and protein were used for these studies. Pollen from MS45/ms45 plants were used to fertilize male-sterile ms45/ms45 plants for the purpose of generating embryos which would be ms45/ms45 as described in Cigan et al 2001. […] Five random bialophos-resistant callus events containing integrated copies of PHP16972 were placed onto maintenance media (FIG. 5, (−)) and maintenance media containing 100 mg/liter safener CBSU-2 (FIG. 5 (+)) at room temperature for 18 hours, removed and PolyA+ RNA prepared and used for RNA analysis as described (Cigan et al. 2001. Sex. Plant Reprod. 14, 135-142) using the ZmMS45 and ZmActin probes for hybridization analysis. […] A very low signal was observed when callus was grown in the absence of CBSU. Actin was used as a control probe to show nearly equivalent RNA levels were present in all samples. […]

[9] = test system: ZmCAS1 transcript; assay: Northern blot of maize callus, leaf and anther RNA treated with CBSU, ZmCAS1 probe; conditions: CBSU-treated tissues; FIG. 3

`NC(=O)NS(=O)(=O)c1ccccc1Cl` [CBSU, N-(aminocarbonyl)-2-chlorobenzenesulfonamide] was tested, and the “GUS expression in callus” value [1] was “inducible GUS expression”, the “GUS expression in callus” value ([2]; 10 mg/l CBSU) was “low levels of GUS expression” and the “GUS expression in callus” value ([2]; 100 mg/l CBSU) was “strong GUS expression”. For the same compound, the “ZmCAS1 hybridization signal in anther mRNA” value ([3]; male-fertile plants watered with 30 mg 2-CBSU (+, F)) was “strong hybridization signals”, the “ZmCAS1 hybridization signal in anther mRNA” value ([3]; male-sterile 5126:DAM plants, CBSU-treated (+, S)) was “reduced ZmCAS1 signal” and the “GUS expression in leaf punches” value [4] was “strong GUS expression”. For the same compound, the “GUS expression in rice callus” value [5] was “strong GUS expression”, the “MS45 protein in leaf extracts” value ([6]; FIG. 7) was “increased steady-state levels of the MS45 protein” and the “MS45 protein in anther extracts” value ([6]; FIG. 8) was “Increased MS45 protein”. The “IN2-2 hybridization signal in anther mRNA” value [7] was “strong hybridization signals”, the “MS45 mRNA hybridization signal in callus” value [8] was “strong induction” and the “ZmCAS1 hybridization in mRNAs from callus, leaf and anther” value [9] was “strong hybridization”.
